Assay results: patent publication US8420653B2, “Pyrimidine compounds and their uses” (Orchid Chemicals & Pharmaceuticals Limited, priority 2008, dated 2013)
Like-named read-outs stand apart in the source and are kept apart here.

What was measured:
TNF- α = test: TNF-α IC50 (Table XVa, assay not given); type: cell-based; details: Table XVa summary
[1] = biological target: T1, purified recombinant COX-2 (Homo sapiens, UniProt P35354); test: COX-2 enzyme based assay; type: biochemical; details: for inhibition at 10 µM: read-out: % Inhibition in rEnzyme Assay COX-2; for COX2 at 10 μm: Table XVa summary
T1 sequence (P35354 18-604): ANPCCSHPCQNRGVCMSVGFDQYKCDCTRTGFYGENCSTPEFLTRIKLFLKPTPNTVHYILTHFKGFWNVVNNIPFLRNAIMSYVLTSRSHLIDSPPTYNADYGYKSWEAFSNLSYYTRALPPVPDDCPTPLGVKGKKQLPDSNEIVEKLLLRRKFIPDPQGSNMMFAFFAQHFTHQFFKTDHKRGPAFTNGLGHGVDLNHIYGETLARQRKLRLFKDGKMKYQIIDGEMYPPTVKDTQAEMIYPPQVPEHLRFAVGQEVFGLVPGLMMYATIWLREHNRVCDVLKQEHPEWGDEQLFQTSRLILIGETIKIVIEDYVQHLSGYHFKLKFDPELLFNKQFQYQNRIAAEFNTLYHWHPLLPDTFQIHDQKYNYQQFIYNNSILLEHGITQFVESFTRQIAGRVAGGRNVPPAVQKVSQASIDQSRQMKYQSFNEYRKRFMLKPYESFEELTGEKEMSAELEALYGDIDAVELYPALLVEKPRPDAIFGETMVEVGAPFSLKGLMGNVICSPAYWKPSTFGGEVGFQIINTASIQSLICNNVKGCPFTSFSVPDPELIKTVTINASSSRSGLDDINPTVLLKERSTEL
Experimental: COX-1 and COX-2 enzyme based assays were carried out to check the inhibitory potential of the test compounds on the production of prostaglandin by purified recombinant COX-1/COX-2 enzyme (Proc. Nat. Acad. Sci. USA, 88, 2692-2696, 1991; J. Clin. Immunoassay 15, 116-120, 1992). In this assay, the potential of the test compound to inhibit the production of prostaglandin either by COX-1 or COX-2 from arachidonic acid (substrate) was measured. This was an enzyme based in-vitro assay to evaluate selective COX inhibition with good reproducibility.
Arachidonic acid was converted to PGH2 (Intermediate product) by COX1/COX-2 in the presence or absence of the test compound. The reaction was carried out at 37° C. and after 2 minutes it was stopped by adding 1M HCl. Intermediate product PGH2 was converted to a stable prostanoid product PGF2α by SnCl2 reduction. The amount of PGF2α produced in the reaction was inversely proportional to the COX inhibitory potential of the test compound. The prostanoid product was quantified via enzyme immunoassay (EIA) using a broadly specific antibody that binds to all the major forms of prostaglandin, using Cayman ELISA kit as per the procedure outlined by the manufacturer (Cayman Chemicals, Ann Arbor, USA).

IL-1β = IL-1β inhibition (Table XVa); type: cell-based; details: Table XVa summary
TNF-α = test: LPS induced sepsis for measurement of TNF-α inhibition in mice; type: in vivo; details: mice; for inhibition in vivo at 50 mg/kg: Mus musculus, 1.5 h, oral, serum 90 minutes after LPS; for TNF -α in vivo (mice): Table XVa summary, unit assumed
Experimental: LPS Induced Sepsis for Measurement of TNF-α Inhibition in Mice
The LPS induced sepsis model in mice was performed as described by Les sekut et al (J Lab Clin Med 1994; 124, 813-20). Female Swiss albino mice were selected and the body weights were equivalent within each group. The mice were fasted for 20 hours with free access to water. The mice were dosed orally with the test compound suspended in vehicle containing 0.5% Tween 80 in 0.25% Carboxy-methylcellulose sodium salt. The control mice were administered the vehicle alone. After 30 minutes of oral dosing, mice were injected with 500 μg of Lipopolysaccharide (Escherichia coli, LPS: B4 from Siga) in phosphate buffer saline solution into the intraperitoneal cavity of the mice. After 90 minutes of LPS administration mice were bled via retro-orbital sinus puncture. Blood samples were stored overnight at 4° C. Serum samples were collected by centrifuging the samples at 4000 rpm for 15 minutes at 4° C. Immediately the serum samples were analyzed for TNF-α levels using commercially available mouse TNF-α ELISA kit (Amersham Biosciences) and assay was performed by the manufacturer instruction.
ED50 Measurement of TNF Alpha Inhibition in Mice Sepsis Model

NCI-H460 = test: Anti-cancer screen (MTT), NCI-H460; type: cell-based; details: Homo sapiens
Experimental: (§1) Experimental drugs are screened for anti-cancer activity in three cell lines for their GI50, TGI and LC50 values (using 5 concentrations for each compound). The cell lines are maintained in DMEM containing 10% fetal bovine serum. 96 well microtiter plates are inoculated with cells in […] for 24 hours at 37° C., 5% CO2, 95% air and 100% relative humidity. 5000 HCT116 cells/well, 5000 NCIH460 cells/well, 10000 U251 cells/well and 5000 MDAMB231 cells/well are plated. A separate plate with these cell lines is also inoculated to determine cell viability before the addition of the compounds (T0).
(§2) Following 24-hour incubation, experimental drugs are added to the 96 well plates. Each plate contains one of the above cell lines and the following in triplicate: 5 different concentrations (0.01, 0.1, 1, 10 and 100 μM) of 4 different compounds, appropriate dilutions of a cytotoxic standard and control (untreated) wells. Compounds are dissolved in dimethylsulfoxide (DMSO) to make 20 mM stock solutions, on the day of drug addition and frozen at −20° C. Serial dilutions of these 20 mM stock solutions are made in complete growth medium such that 100 μL of these drug solutions in medium, of final concentrations equaling 0.01, 0.1, 1, 10 and 100 μM can be added to the cells in triplicate. Standard drugs whose anti-cancer activity has been well documented and which are regularly used are doxorubicin and SAHA.
(§3) Cells are incubated with compounds for 48 hours followed by the addition of 10 μL 3-(4,5-Dimethyl-2-thiazolyl)-2,5-diphenyl-2H-tetrazolium (MTT) solution per well and a subsequent incubation at 37° C., 5% CO2, 95% air and 100% relative humidity, protected from light. After 4 hours, well contents are aspirated carefully followed by addition of 150 μL DMSO per well. Plates are agitated to ensure solution of the formazan crystals in DMSO and absorbance read at 570 nm.
(§4) Percent growth is calculated for each compound's concentration relative to the control and zero measurement wells (T0; viability right before compound addition). If a test well's O.D. value is greater than the T0 measurement for that cell line % Growth=(test−zero)/(control−zero)×100
(§5) If a test well's O.D. value is lower than the T0 measurement for that cell line, then: % Growth=(test−zero)/zero×100
(§6) Plotting % growth versus experimental drug concentration, GI50 is the concentration required to decrease % growth by 50%; TGI is the concentration required to decrease % growth by 100% and LC50 is the concentration required to decrease % growth by 150%.

HCT-116 = test: Anti-cancer screen (MTT), HCT-116; type: cell-based; details: Homo sapiens
Experimental: as §1, §2, §3, §4, §5, §6

[2] = 48 hours, MTT, read-out: GI50 (μM) NCI-H460
[3] = Table XVb summary, for NCI, read-out: Cancer cell lines DU, HCT, NCI (Mean GI50, μm), NCI
[4] = 48 hours, MTT, read-out: GI50 (μM) HCT-116
[5] = Table XVb summary, for HCT, read-out: Cancer cell lines DU, HCT, NCI (Mean GI50, μm), HCT

IC50 (TNF- α) | inhibition at 10 µM [1] | COX2 at 10 μm [1] | GI50 (NCI-H460; [2]) | GI50 (HCT-116; [4]) | Structure (SMILES) | IL-1β at 10 μm (IL-1β) | inhibition in vivo at 50 mg/kg (TNF-α) | TNF -α in vivo (mice) (TNF-α) | GI50 (NCI-H460; [3]) | GI50 (HCT-116; [5])
0.064 µM | 31% | 31 | 10.5 µM | > 100 µM | CCOC(=O)C1CCN(c2nc(C(F)(F)F)nc(-c3ccc(F)cc3)c2-c2cccc(S(N)(=O)=O)c2)CC1 [Example 59, Ethyl-1-[5-(3-aminosulfonylphenyl)-6-(4-fluorophenyl)-2-(trifluoromethyl)pyrimidin-4-yl]piperidine-4-carboxylate] | 29 | 87.2% | 82% | 10.5 µM | > 100 µM
0.078 µM | 20% | 20 | > 100 µM | > 100 µM | NS(=O)(=O)c1cccc(-c2c(-c3ccc(F)cc3)nc(C(F)(F)F)nc2-n2ccnc2)c1 [Example 80, 3-[4-(4-Fluorophenyl)-6-(1H-imidazol-1-yl)-2-(trifluoromethyl)pyrimidin-5-yl]benzenesulfonamide] | 36 | 82.8% | 87% | > 100 µM | > 100 µM
